Measured values from PubChem BioAssay AID1963841 (Molecular Pharmacology Branch, DTP, NCI, 2024).
Where “and” joins values, the source holds several entries; their conditions need not be identical. Identical values can stand only once.

Test system: 439559-082-T-J2-PDC spheroid viability
Test: Anticancer human tumor 439559-082-T-J2-PDC patient-derived colon adenocarcinoma cell line growth inhibition [POLQ]
Conditions: spheroids with HUVEC and MSC; for viability, T/C: stronger effect = lower value
Method: Multicellular complex tumor spheroid response to Polymerase (POL) inhibitors (novobiocin, ART-558, RP6685) in combination with a variety of drugs and investigational agents in selected tumor cell lines
The POL inhibitors (novobiocin, ART-558, and RP6685) were evaluated both individually and in combination with standard of care and investigational anticancer small molecules within a complex spheroid model of solid tumors. . Complex spheroids include a stromal component modeled by human endothelial cells (HUVEC) and fibroblasts modeled by human mesenchymal stem cells (MSCs). The concentration ranges selected for each drug and investigational agent were based upon clinically achievable concentrations if the clinical Cmax of the agent was known.
Compounds. The drugs and investigational agents: novobiocin (NSC847541), ART-558 (NSC835418), RP-6685 (NSC848927), peposertib (NSC802822), ceralasertib (NSC780249), elimusertib (NSC800525), camonsertib (NSC841442), AZD-1390 (NSC803789), olaparib (NSC753686), talazoparib (NSC767125), rucaparib (NSC756644), sotorasib (NSC818433), MRTX-1133 (NSC836407), SN-38 (NSC673596), topotecan (NSC609699), epotoside (NSC141540), doxorubicin (NSC123127), gemcitabine (NSC613327), 5-fluorouracil (NSC19893), paclitaxel (NSC125973), vemurafenib (NSC761431), MSA-2 (NSC828583), SN-011 (NSC837082), adavosertib (NSC754352), prexasertib (NSC758257), carboplatin (NSC241240) and oxaliplatin (NSC266046), were obtained from the National Cancer Institute (NCI) Developmental Therapeutics Program Chemical Repository (21). The FDA-approved anticancer drug set is available from the Developmental Therapeutics Program at https://dtp.cancer.gov/organization/dscb/obtaining/. […] The stock solutions were prepared in dimethyl sulfoxide (DMSO, Sigma-Aldrich, St. Louis, MO, cat. D2650), except for the platinum compounds which were prepared in saline (Quality Biological, Gaithersburg, MD, cat. 114-055-101), at 800-fold the tested concentration and stored at -70 degrees C prior to their use. All drugs and investigational agents were tested over a range starting from a high concentration at or near the clinical Cmax and decreasing in half-log increments. If the clinical Cmax for an agent had not been determined, the highest concentration tested was 10 microM, except for SN-38, which was tested at a high concentration of 1 microM.
Cell Culture. All cells were maintained in an incubator at 37 degrees C and 5% CO2 with 95% humidity. The PDC lines were cultured according to standard operating procedures established by the NCI PDMR (https://pdmr.cancer.gov). Table 3 of the manuscript, lists the cell lines along with the number of the three cell types plated to form the mct-spheroids and media for tumor cell growth. After thawing, all PDC lines, except 997537-175-T-J1-PDC and 415267-285-R-J2-PDC, were cultured in Matrigel-coated flasks prepared with a working solution of 1X Ham's F-12 nutrient mix, without supplementation (Thermo Fisher Scientific, cat. 11765054), 100 U/mL penicillin-streptomycin (Thermo Fisher Scientific, cat. 15140122), and 2.5% Matrigel (Corning Inc., Corning, NY, cat. 354248) for the first three passages. The two PDC lines 997537-175-T-J1-PDC and 415267-285-R-J2-PDC were cultured on uncoated flasks. The 857933-349-R-J2-PDC line was cultured in 6C/Colon 1B media containing advanced DMEM/F-12 (Thermo Fisher Scientific, cat. 12634028), 10 mM HEPES (Thermo Fisher Scientific, cat. 15630080), 1X GlutaMAX supplement (Thermo Fisher Scientific, cat. 35050061), 0.1 mg/mL primocin (InvivoGen, San Diego, CA, cat. ant-pm-2), 10% defined fetal bovine serum, heat inactivated (HyClone Laboratories Inc., Logan, UT, cat. SH30070.03HI), 50% L-WRN conditioned media (ATCC, cat. CRL-3276), 1.25 mM N-Acetyl-L-cysteine (Sigma-Aldrich, cat. A9165), 10 mM nicotinamide (Sigma-Aldrich, cat. N0636), 1X B-27 supplement (Thermo Fisher Scientific, cat. 17504044), 1X N-2 supplement (Thermo Fisher Scientific, cat. […]

[1] = compound alone, run of 11/27/2023
[2] = compound alone, run of 12/05/2023
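Note: spheroids exposed to compounds for seven days before readout.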
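Throughout, for viability, T/C: 100% = DMSO vehicle control viability.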

| SMILES | viability, T/C (compound 0.0316 µM) | viability, T/C (compound 0.1 µM) | viability, T/C (compound 0.316 µM) | viability, T/C (compound 1 µM) | viability, T/C (compound 3.16 µM) | viability, T/C (compound 10 µM) | IC50 [1] [µM] | IC50 (curve of compound) | viability, T/C (compound 0.00316 µM) | viability, T/C (compound 0.01 µM) | IC50 [2] [µM] | viability, T/C (compound 0.000316 µM) | viability, T/C (compound 0.001 µM) |
| --- | --- | --- | --- | --- | --- | --- | --- | --- | --- | --- | --- | --- | --- |
| COC1C(OC(N)=O)C(O)C(Oc2ccc3c(O)c(NC(=O)c4ccc(O)c(CC=C(C)C)c4)c(=O)oc3c2C)OC1(C)C (stereo unspecified) | 102% [middle of 13 runs] | 96.7% [middle of 13 runs] | 101% [middle of 13 runs] | 101% [middle of 13 runs] | 100% [middle of 12 runs] | 105% [middle of 13 runs] | > 10 | – | – | – | – | – | – |
| COc1cc(C2c3cc4c(cc3C(OC3OC5COC(C)OC5C(O)C3O)C3COC(=O)C23)OCO4)cc(OC)c1O (stereo unspecified) | 92.4% and 99.3% and 94.1% | 95.6% and 95.3% and 97.8% | 92.7% and 82% and 98.2% | 90.5% and 88.4% and 95.4% | 82.1% and 81.8% and 89.5% | 73.7% and 72.7% and 70.3% | – | > 10 µM | – | – | – | – | – |
| COc1cc2cc(C(=O)CCC(=O)O)sc2cc1OC | 109% and 97.5% and 94.4% | 93.8% and 82% and 103% | 89.1% and 98.4% and 98.9% | 95.2% and 100% and 99.7% | 95.2% and 91.9% and 97% | 87.7% and 100% (2×) | – | > 10 µM | – | – | – | – | – |
| COc1ccc([C@@H](O)c2cc(-c3ncnc4cc(N5CCOCC5)ccc34)c(F)cc2Cl)nn1 | 94.6% and 84.4% and 97.3% | 98.2% and 88.9% and 93% | 93.3% and 85.8% and 90.6% | 103% and 90.1% and 94.2% | 89.3% and 96.5% and 85.9% | 82.2% (2×) and 75.2% | – | > 10 µM | – | – | – | – | – |
| COc1cccc(OCCCN)c1-c1cc(Nc2cnc(C#N)cn2)n[nH]1 | 73.2% and 77.3% and 77.8% | 55.3% and 76.4% and 78.8% | 30.3% and 45.7% and 50.2% | 18.1% and 20.9% and 23% | – | – | – | 0.118 µM and 0.296 µM and 0.345 µM | 99.5% and 95.1% and 102% | 88.5% and 89.2% and 81.1% | – | – | – |
| COc1cccc2c1C(=O)c1c(O)c3c(c(O)c1C2=O)CC(O)(C(=O)CO)CC3OC1CC(N)C(O)C(C)O1 (stereo unspecified) | 94.9% and 90.3% and 99.1% | 86.6% and 79.9% and 96.6% | 79.8% and 66.8% and 88% | 72.6% and 63.7% and 70.9% | 65% and 58.3% and 60.4% | 52.5% and 69.4% and 49.1% | – | > 10 µM and 9.81 µM | – | – | – | – | – |
| Cc1cccc(N(C)C(=O)C2C(O)CCN2c2nc(C)cc(C(F)(F)F)c2C#N)c1 (stereo unspecified) | 98.9% [middle of 12 runs] | 95.7% [middle of 12 runs] | 97.4% [middle of 12 runs] | 98.2% [middle of 12 runs] | 97% [middle of 12 runs] | 101% [middle of 12 runs] | > 10 | – | – | – | > 10 | – | – |
| Cn1ncnc1[C@H]1c2n[nH]c(=O)c3cc(F)cc(c23)N[C@@H]1c1ccc(F)cc1 | 97.2% and 98.5% and 107% | 97.3% and 95.7% and 88.3% | – | – | – | – | – | > 0.1 µM | 94.4% and 97.9% and 97.8% | 96.7% and 93.2% and 100% | – | 101% and 102% and 94.5% | 100% (2×) and 86.2% |
| Nc1ccc(C#CCN(C(=O)Cc2ncc(C(F)(F)F)cc2C(F)(F)F)c2ccc(F)cc2)nn1 | 96.1% [middle of 13 runs] | 97.8% [middle of 13 runs] | 96% [middle of 13 runs] | 100% [middle of 13 runs] | 99.5% [middle of 13 runs] | – | – | – | – | – | > 10 | – | – |
| Nc1ccn(C2OC(CO)C(O)C2(F)F)c(=O)n1 (stereo unspecified) | 84.5% and 77.1% and 81% | 68.2% and 74.4% and 72% | 58.2% and 59% and 56.6% | 49.8% and 43.5% and 39.9% | 36.5% and 35.1% and 30.8% | 31.1% and 26.7% and 27.3% | – | 0.767 µM and 0.656 µM and 0.496 µM | – | – | – | – | – |
| O=C(Nc1ccc(O)c(NS(=O)(=O)c2ccc(F)cc2)c1)c1ccc(-c2ccccc2)cc1 | 91% and 95.6% and 94.9% | 95.3% and 90.8% and 94.3% | 87.2% and 100% and 98.6% | 97.2% and 96.6% and 96.2% | 112% and 107% and 106% | 105% and 102% and 101% | – | > 10 µM | – | – | – | – | – |
| O=C(c1cc(Cc2n[nH]c(=O)c3ccccc23)ccc1F)N1CCN(C(=O)C2CC2)CC1 | 88.1% and 67.6% and 87.6% | – | – | – | – | – | – | > 10 µM | – | – | – | – | – |
| O=c1[nH]cc(F)c(=O)[nH]1 | 94.6% and 117% and 96.9% | 95% and 114% and 94.2% | 83.6% and 86.3% and 81% | 76.2% and 90.7% and 73% | 71.1% and 87% and 72.8% | 68.4% and 78.9% and 71.5% | – | > 10 µM | – | – | – | – | – |
